Reference: ChEMBL document CHEMBL3045921, “Synthesis and Acaricidal Activity of Pyrazole-5-carboxamide Derivatives” (1991)

Key:
Format in all cases: functional
Details in all cases: 120 h
Tetranychus urticae [1] = test: Acaricidal activity against Tetranychus urticae (two-spotted spider mite) in kidney bean leaf assessed as mortality at 500 ppm at 25 degC measured after 5 days
Tetranychus urticae [2] = test: Acaricidal activity against Tetranychus urticae (two-spotted spider mite) in kidney bean leaf assessed as mortality at 200 ppm at 25 degC measured after 5 days
Tetranychus urticae [3] = test: Acaricidal activity against Tetranychus urticae (two-spotted spider mite) in kidney bean leaf assessed as mortality at 50 ppm at 25 degC measured after 5 days
Tetranychus urticae [4] = test: Acaricidal activity against Tetranychus urticae (two-spotted spider mite) in kidney bean leaf assessed as mortality at 3.1 ppm at 25 degC measured after 5 days
Tetranychus urticae [5] = test: Acaricidal activity against Tetranychus urticae (two-spotted spider mite) in kidney bean leaf assessed as mortality at 12.5 ppm at 25 degC measured after 5 days

| Compound | mortality at 500 ppm (Tetranychus urticae [1]) [%] | mortality at 200 ppm (Tetranychus urticae [2]) [%] | mortality at 50 ppm (Tetranychus urticae [3]) [%] | mortality at 3.1 ppm (Tetranychus urticae [4]) [%] | mortality at 12.5 ppm (Tetranychus urticae [5]) [%] |
| --- | --- | --- | --- | --- | --- |
| CCc1nn(C)c(C(=O)NCc2ccc(OC(C)C)cc2)c1Cl | 80 | 30 | 0 |  |  |
| CCCCOc1ccc(CNC(=O)c2c(Cl)c(CC)nn2C)cc1 | 100 | 80 | 30 |  |  |
| CC(=O)Nc1c(C)nn(C)c1C(=O)NCc1ccc(C(C)(C)C)cc1 | 0 | 0 | 0 | 0 | 0 |
| CCc1nn(C)c(C(=O)NCc2ccccc2)c1Cl | 0 | 0 | 0 | 0 | 0 |
| CCc1nn(C)c(C(=O)NCc2ccc(OCC(F)(F)F)cc2)c1Cl | 80 | 30 | 0 |  |  |
| Cc1nn(C)c(C(=O)Nc2ccc(C(C)(C)C)cc2)c1Br | 0 | 0 | 0 |  |  |
| Cc1nn(C)c(C(=O)NCc2ccc(C(F)(F)F)cc2)c1Cl | 100 | 100 | 80 |  |  |
| CCc1nn(C)c(C(=O)NCc2ccc(C)cc2)c1Cl | 0 | 0 | 0 | 0 | 0 |
| Cc1nn(C)c(C(=O)NCc2ccc(C(C)(C)C)cc2)c1N | 0 | 0 | 0 | 0 | 0 |
| Cn1ncc(Cl)c1C(=O)NCc1ccc(C(C)(C)C)cc1 | 100 | 100 | 30 | 0 | 0 |
| Cc1nn(C)c(C(=O)N(C)Cc2ccc(C(C)(C)C)cc2)c1Cl | 0 | 0 | 0 |  |  |
| Cc1nn(C)c(C(=O)SCc2ccc(C(C)(C)C)cc2)c1Cl | 30 | 0 | 0 |  |  |
| CCCOc1ccc(CNC(=O)c2c(Cl)c(CC)nn2C)cc1 | 100 | 80 | 0 |  |  |
| CCc1ccc(CNC(=O)c2c(Cl)c(CC)nn2C)cc1 | 30 | 0 | 0 | 0 | 0 |
| CCCCn1nc(C)c(Cl)c1C(=O)NCc1ccc(C(C)(C)C)cc1 | 0 | 0 | 0 |  |  |
| CC(C)Cc1nn(C)c(C(=O)NCc2ccc(C(C)(C)C)cc2)c1Cl | 0 | 0 | 0 | 0 | 0 |
| CCc1nn(C)c(C(=O)NCc2ccc(CC(C)C)cc2)c1Cl | 100 | 100 | 80 | 0 | 30 |
| Cc1nn(C)c(C(=O)NC(C)(C)c2ccccc2)c1Br | 0 | 0 | 0 |  |  |
| CCc1nn(C)c(C(=O)NCc2ccc([N+](=O)[O-])cc2)c1Cl | 0 | 0 | 0 |  |  |
| CCn1nc(C)c(Cl)c1C(=O)NCc1ccc(C(C)(C)C)cc1 | 0 | 0 | 0 |  |  |
| Cc1nn(C)c(C(=O)NC(C)c2ccc(C(C)(C)C)cc2)c1Br (stereo not drawn) | 100 | 100 | 80 |  |  |
| Cn1nc(-c2ccccc2)c(Cl)c1C(=O)NCc1ccc(C(C)(C)C)cc1 | 0 | 0 | 0 | 0 | 0 |
| Cc1nn(C)c(C(=S)NCc2ccc(C(C)(C)C)cc2)c1Cl | 80 | 30 | 0 |  |  |
| Cc1cc(C(=O)NCc2ccc(C(C)(C)C)cc2)n(C)n1 | 100 | 100 | 100 | 0 | 30 |
| Cn1nc(C2CC2)c(Cl)c1C(=O)NCc1ccc(C(C)(C)C)cc1 | 30 | 0 | 0 | 0 | 0 |
| CCCNc1ccc(CNC(=O)c2c(Cl)c(CC)nn2C)cc1 | 80 | 0 | 0 |  |  |
| Cc1nn(C)c(C(=O)NCc2ccccc2C(F)(F)F)c1Cl | 0 | 0 | 0 |  |  |
| CCc1nn(C)c(C(=O)NCc2ccc([Si](C)(C)C)cc2)c1Cl | 100 | 100 | 100 | 0 | 80 |
